Test results published in patent publication US12138583B2, “Process for removal of acid gases from a fluid stream with a liquid absorbent comprising a piperazine ring” (BASF SE, priority 2019, dated 2024).
Like-named read-outs stand apart in the source and are kept apart here.

Key:
Format in all cases: physicochemical
[1] = Acid gas loading capacity: CO2 loading and stripping experiment; details: for CO2 loading after loading / CO2 loading after stripping / Cyclic CO2 capacity: 30 wt.-% amine in water; for CO2 loading after loading: 40° C., ambient pressure, 8 L (STP)/h CO2, about 4 h; for CO2 loading after stripping: stripping at 80° C. with N2 8 L (STP)/h, 60 min; for Cyclic CO2 capacity: difference of loading after loading and after stripping; for Acid gas loading capacities (in words): CO2 and H2S, absorbents 30 wt.-% in water, compared with TBAEE and MDEA
Experimental: (§1) A loading experiment and subsequently a stripping experiment were conducted. A glass condenser, which was operated at 5° C., was attached to a glass cylinder with a thermostated jacket. Condensate obtained in the course of the experiment was returned to the glass cylinder so as to prevent distortion of the test results by partial evaporation of the absorbent.
(§2) The glass cylinder was initially charged with about 100 mL of unladen absorbent (30% by weight of amine in water). To determine the absorption capacity, at ambient pressure and 40° C., 8 L (STP)/h of CO2 or H2S were passed through the absorption liquid via a frit over a period of about 4 h. Subsequently, the loading of CO2 or H2S was determined as follows:
(§3) The determination of H2S was effected by titration with silver nitrate solution. For this purpose, the sample to be analyzed was weighed into an aqueous solution together with about 2% by weight of sodium acetate and about 3% by weight of ammonia. Subsequently, the H2S content was determined by a potentiometric turning point titration by means of silver nitrate. At the turning point, H2S is fully bound as Ag2S. The CO2 content was determined as total inorganic carbon (TOC-V Series Shimadzu).
(§4) The laden solution was stripped by heating an identical apparatus setup to 80° C., introducing the laden absorbent and stripping it by means of an N2 stream (8 L (STP)/h). After 60 min, a sample was taken and the CO2 or H2S loading of the absorbent was determined as described above.
(§5) The difference in the loading at the end of the loading experiment and the loading at the end of the stripping experiment gives the respective cyclic capacity.

[2] = Relative volatility: N2 passed through the absorbent, condensate analysed by GC and Karl Fischer titration; details: for Amine (in condensate) / Water (in condensate) / Condensate: 30 wt.-% aqueous solution, 50° C., 8 h; for Amine (in condensate) / Water (in condensate): 30 L (STP)/h N2; for Amine (in condensate): GC; for Water (in condensate): Karl Fischer titration; for Condensate: 200 mL, 30 L (STP)/h N2, condenser 5° C.; for Volatility (in words): 30 wt.-% aqueous solutions
Experimental: The volatility of amines TBAP-MPIP and TBAE-MPIP in 30 wt.-% aqueous solutions was compared to that of amines M3ETB, MDEA and TBAEPY in 30% wt.-% aqueous solutions.
A glass condenser, which was operated at 5° C., was attached to a glass cylinder with a thermostated jacket. The glass cylinder was thermostated to 50° C., and 200 mL of the absorbent were introduced for each test. Over an experimental duration of 8 h, 30 L (STP)/h of N2 were passed through the absorbent at ambient pressure. For each amine, the test was conducted three times. The condensate was analyzed by means of GC and Karl Fischer titration.

[3] = pKA value by titration with hydrochloric acid; details: for Second pKA value (in words) / pKa: 20° C.; for pKa: aqueous solution, aqueous solution 0.005 mol amine per liter, HCl 0.1 mol/L; for First pKA value (in words): at relatively low temperatures (20° C.)
[4] = Thermal stability of aqueous amine solutions with and without acid gas loading; details: 150° C., 125 h; for Ratio of Degradation Without Acid Gas Loading: closed cylinder, amine concentration by GC before and after; for Ratio of Degradation Without Acid Gas Loading / Ratio of Degradation With Acid Gas Loading: in water: MDEA 40, TBAP-MPIP 30, TBAE-MPIP 25, DEAE-EPIP 30 wt.-%; for Ratio of Degradation With Acid Gas Loading: 20 m^3 (STP)/tsolvent CO2 and 20 m^3 (STP)/tsolvent H2S
Experimental: The thermal stability of TBAP-MPIP (30 wt.-% in water) and TBAE-MPIP (25 wt.-% in water) was compared to both MDEA (40 wt.-% MDEA in water) and DEAE-EPIP (30 wt.-% DEAE-EPIP in water) with and without acid gas loading.
A cylinder (10 mL) was initially charged with the respective solution (8 mL) and the cylinder was closed. […] In the experiments conducted under acid gas loading, the acid gas loading of the solutions was 20 m^3 (STP)/tsolvent of CO2 and 20 m^3 (STP)/tsolvent of H2S. The decomposition level of the amines was calculated from the amine concentration measured by gas chromatography before and after the experiment.

[5] = Acid gas loading capacity: H2S loading and stripping experiment; details: for H2S loading after loading / H2S loading after stripping / Cyclic H2S capacity: 30 wt.-% amine in water; for H2S loading after loading: 40° C., ambient pressure, 8 L (STP)/h H2S, about 4 h; for H2S loading after stripping: stripping at 80° C. with N2 8 L (STP)/h, 60 min; for Cyclic H2S capacity: difference of loading after loading and after stripping
Experimental: as §1, §2, §3, §4, §5

SMILES: CC(C)(C)NCCOCCO [TBAEE, 2-(2-tert-butylaminoethoxy)ethanol, reference compound]
- CO2 loading after loading [1]: 0.97 mol CO2/molamine
- CO2 loading after stripping [1]: 0.24 mol CO2/molamine
- Cyclic CO2 capacity [1]: 0.73 mol CO2/molamine

SMILES: CC(C)(C)NCCN1CCCC1=O [TBAEPY, 1-[2-(tert-butylamino)ethyl]pyrrolidin-2-one, reference compound]
- Amine (in condensate) [2]: 0.2 wt %
- Water (in condensate) [2]: 99.5 wt %
- Condensate [2]: 28.8 mL

SMILES: CN1CCN(CCNC(C)(C)C)CC1 [TBAE-MPIP, 2-(4-methylpiperazin-1-yl)ethyl-tert-butylamine]
- Second pKA value (in words) [3]: close to the pKa value of MDEA
- pKa ([3]; read-out: pKA 1): 10
- pKa ([3]; read-out: pKA 2): 8.82
- pKa ([3]; read-out: pKA 3): 5.47
- First pKA value (in words) [3]: high first pKA values
- CO2 loading after loading [1]: 1.46 mol CO2/molamine
- CO2 loading after stripping [1]: 0.22 mol CO2/molamine
- Cyclic CO2 capacity [1]: 1.24 mol CO2/molamine
- Acid gas loading capacities (in words) [1]: significantly higher acid gas loading capacities than absorbents based on TBAEE and MDEA
- Amine (in condensate) [2]: 0.7 wt %
- Water (in condensate) [2]: 99.3 wt %
- Condensate [2]: 29.28 mL
- Volatility (in words) [2]: suitably low volatility
- Stability in aqueous solutions (in words) [4]: comparable to MDEA, and higher than DEAE-EPIP
- Ratio of Degradation Without Acid Gas Loading [4]: 1.00
- Ratio of Degradation With Acid Gas Loading [4]: 0.88
- H2S loading after loading [5]: 1.62 mol H2S/molamine
- H2S loading after stripping [5]: 0.35 mol H2S/molamine
- Cyclic H2S capacity [5]: 1.27 mol H2S/molamine

SMILES: CCN(CC)CCN1CCN(CC)CC1 [DEAE-EPIP, 2-(4-ethylpiperazin-1-yl)ethyl-diethylamine, reference compound]
- pKa ([3]; read-out: pKA 1): 10.3
- pKa ([3]; read-out: pKA 2): 8.61
- pKa ([3]; read-out: pKA 3): 6.2
- CO2 loading after loading [1]: 1.48 mol CO2/molamine
- CO2 loading after stripping [1]: 0.13 mol CO2/molamine
- Cyclic CO2 capacity [1]: 1.35 mol CO2/molamine
- Ratio of Degradation Without Acid Gas Loading [4]: 1.00
- Ratio of Degradation With Acid Gas Loading [4]: 0.77
- H2S loading after loading [5]: 0.98 mol H2S/molamine
- H2S loading after stripping [5]: 0.31 mol H2S/molamine
- Cyclic H2S capacity [5]: 0.67 mol H2S/molamine
- Cyclic H2S capacity (in words) ([5]; 30 wt.-% in water, comparison with TBAP-MPIP and TBAE-MPIP): significantly lower than the capacity of both TBAP-MPIP and TBAE-MPIP

SMILES: CN1CCN(CCCNC(C)(C)C)CC1 [TBAP-MPIP, 3-(4-methylpiperazin-1-yl)propyl-tert-butylamine]
- Second pKA value (in words) [3]: close to the pKa value of MDEA
- pKa ([3]; read-out: pKA 1): 10.7
- pKa ([3]; read-out: pKA 2): 7.68
- pKa ([3]; read-out: pKA 3): 5.8
- First pKA value (in words) [3]: high first pKA values
- CO2 loading after loading [1]: 1.41 mol CO2/molamine
- CO2 loading after stripping [1]: 0.70 mol CO2/molamine
- Cyclic CO2 capacity [1]: 0.71 mol CO2/molamine
- Acid gas loading capacities (in words) [1]: significantly higher acid gas loading capacities than absorbents based on TBAEE and MDEA
- Amine (in condensate) [2]: 0.3 wt %
- Water (in condensate) [2]: 99.7 wt %
- Condensate [2]: 30.3 mL
- Volatility (in words) [2]: suitably low volatility
- Stability in aqueous solutions (in words) [4]: comparable to MDEA, and higher than DEAE-EPIP
- Ratio of Degradation Without Acid Gas Loading [4]: 0.99
- Ratio of Degradation With Acid Gas Loading [4]: 0.91
- H2S loading after loading [5]: 1.48 mol H2S/molamine
- H2S loading after stripping [5]: 0.33 mol H2S/molamine
- Cyclic H2S capacity [5]: 1.15 mol H2S/molamine

SMILES: COCCOCCOCCNC(C)(C)C [M3ETB, (2-(2-(2-tert-butylaminoethoxy)ethoxy)ethyl)methyl ether, reference compound]
- Amine (in condensate) [2]: 0.7 wt %
- Water (in condensate) [2]: 99.2 wt %
- Condensate [2]: 30.1 mL
